Laboratory results from patent publication US5079261A, “Use of lipoxin A4 and its derivatives as antagonists for slow-reacting substances of anaphylaxis” (Brigham and Women's Hospital, priority 1989, dated 1992).
“Also recorded” adds a separate entry of the source.

Legend:
LTD4 receptor [1] = experiment: Inhibition of LTD4-induced IP3 formation in mesangial cells; type: cell-based, rat
Experimental: Mesangial Cell Culture: Rat mesangial cells were isolated and cultured as described previously (Harris, R. C., et al., J. Clin. Invest. 82:1028-1039(1988). Briefly, kidneys were exicesed from two young Sprague-Dawly rats under sterile conditions, and the cortices removed, minced, and washed several times in Hank's Balanced Salt Solution, containing 10 mM HEPES pH 7.4, amphotericin (0.25 μg/ml), and gentamicin (50 μg/ml). The tissue was then passed through consecutive sterilized stainless mesh filters with pore sizes of 212 μm, 150 μm, and then onto the final mesh of 75 μm. The isolated glomeruli were harvested from the surface of the 75 μm. The isolated glomeruli were harvested from the surface of the 75 μm filter and washed twisce with the Hank's Media. The glomeruli were suspended in RPMI 1640 Medium with 15% Fetal Bovine Serum (Givco), penicillin (100 μ/ml) and streptomycin (100 μg/ml) (Gibco), plated into 100 mm cell culture petri dishes, and incubated at 37° C. in a humidified atmosphere of 95% air and […] 5% CO2. Mesangial cell colonies were subcultured in 60 mm culture dishes, and experiments were carried out in cells from passages 2 to 12. The criteria used to establish the identify of mesangial cells were as described previously (Harris, R. C., et al., J. Clin. Invest. 82:1028-1039 (1988)). Cells were routinely grown in RPMI-1640, supplemented with 20% fetal calf serum, penicillin 100 μ/ml, and streptomycin 100 μg/ml. […] All eicosanoids were stored under argon at -70° C. in methanol and their purity and quantity verified periodically by ultraviolet scanning and high pressure liquid chromatography (Serhan, C. N. et al., J. Biol. Chem. 261:16340 (1986)).
(§1) To label mesangial cells with [^3 H]-Inositol, cells grown to confluence in 60 mm culture dishes (10^6 cells/dish) were cultured in RPMI, supplemented with 10% dialyzed fetal calf serum and [^3 H]-inositol (1 μCi/ml) in a total incubation volume of 5 ml.
Reactions were terminated by the addition of cold 10% trichloroacetic acid (TCA), the supernatants subjected to ether extraction, and the aqueous phase titrated to neutral pH using 0.1 M Tris base. [^3 H]-IP1, [^3 H]-IP2, and [^3 H]-IP3 in the aqueous phase were separated and quantitated by anion exchange column chromatography, using the method of Berridge et al. (Berridge, M. J., Biochem. J. 220:345-360 (1984)). To ensure the reliability of the separation technique, the same methods for extraction and separation were applied to known amounts of [^3 H]-IP1, [^3 H]IP2, and [^3 H]-IP3 standards (New England Nuclear) mixed in a ratio of 3:2:1, respectively, and subjected to separation by HPLC. The latter was performed using established methodology described previously (Cunha-Melo, J. R., et al., J. Biol. Chem. 262:11455-11463 (1987)).

[2] = biological target: T1, mesangial cell LTD4 receptor (Rattus norvegicus, UniProt Q924T8); parameters: endogenous in cells; host or cells: primary glomerular mesangial cells of young Sprague-Dawley rats, passages 2 to 12; settings: other studies of the inventors; cited from earlier work
T1 sequence (Q924T8 1-339): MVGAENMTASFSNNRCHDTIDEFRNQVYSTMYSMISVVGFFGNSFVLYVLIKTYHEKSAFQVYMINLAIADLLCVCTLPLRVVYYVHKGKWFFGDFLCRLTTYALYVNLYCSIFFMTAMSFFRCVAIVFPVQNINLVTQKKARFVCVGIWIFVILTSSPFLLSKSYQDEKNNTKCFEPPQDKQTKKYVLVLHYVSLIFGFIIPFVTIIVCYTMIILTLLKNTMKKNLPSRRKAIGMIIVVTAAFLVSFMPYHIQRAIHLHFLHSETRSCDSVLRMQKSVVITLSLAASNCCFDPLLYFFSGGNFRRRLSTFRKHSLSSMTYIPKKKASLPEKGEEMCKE

LTD4 receptor [3] = experiment: Inhibition of LXA4-induced IP3 formation in mesangial cells; type: cell-based, rat
Experimental: Mesangial Cell Culture: Rat mesangial cells were isolated and cultured as described previously (Harris, R. C., et al., J. Clin. Invest. 82:1028-1039(1988). Briefly, kidneys were exicesed from two young Sprague-Dawly rats under sterile conditions, and the cortices removed, minced, and washed several times in Hank's Balanced Salt Solution, containing 10 mM HEPES pH 7.4, amphotericin (0.25 μg/ml), and gentamicin (50 μg/ml). The tissue was then passed through consecutive sterilized stainless mesh filters with pore sizes of 212 μm, 150 μm, and then onto the final mesh of 75 μm. The isolated glomeruli were harvested from the surface of the 75 μm. […] All eicosanoids were stored under argon at -70° C. in methanol and their purity and quantity verified periodically by ultraviolet scanning and high pressure liquid chromatography (Serhan, C. N. et al., J. Biol. Chem. 261:16340 (1986)). […]
Reactions were terminated by the addition of cold 10% trichloroacetic acid (TCA), the supernatants subjected to ether extraction, and the aqueous phase titrated to neutral pH using 0.1 M Tris base. [^3 H]-IP1, [^3 H]-IP2, and [^3 H]-IP3 in the aqueous phase were separated and quantitated by anion exchange column chromatography, using the method of Berridge et al. (Berridge, M. J., Biochem. J. 220:345-360 (1984)). […]

LTD4/ LTE4 receptors = settings: in vivo and in vitro; cited from earlier work
LTD4 receptor [4] = settings: cited from earlier work
[5] = intra-renal arterial LTD4 1 μg/kg/min; cited from earlier work
mesangial cells = settings: cited from earlier work
[6] = Renal function in vivo in anesthetized rats (AP, Hct, RPF, GFR) during intrarenal arterial infusion; parameters: species or system male Munich-Wistar rats; settings: for Mean percent fall in RPF / Mean percent fall in GFR: without LXA4
From the text: (§2) Statistical: ANOVA with Bonferroni modification for multiple pre-planned comparisons was used, within each group and between groups, to compare the changes in various whole kidney and microcirculatory indices which occurred from one period to another. In phosphoinositide generation studies, increases in [^3 H]-IP3 CPMs in agonist-treated cells were compared to vehicle-treated controls using upaired students t-test. Differences were considered significant at a p value ≤0.05. All values are reported as means ± SEM.
Inulin and para-aminohippurate (PAH) clearances Were used to measure GFR and effective RPF. A needle was placed at the take-off of the left renal artery through which a maintenance infusion of 0.9% NaCl at a rate of 0.05 ml/min was initiated. […] Two experimental groups
Group I (n=14). First period: Clearances were performed during vehicle infusion.
Group II (n=12). First period: Clearances were performed during vehicle infusion.

rat mesangial cells = experiment: IP3 formation ([3H]-inositol labeled mesangial cells) in response to LTD4 or LXA4; type: cell-based; settings: Mesangial cell, read-out: increase in [3H]-IP3 counts over controls
From the text: as §2
The isolated glomeruli were harvested from the surface of the 75 μm filter and washed twisce with the Hank's Media. […] Mesangial cell colonies were subcultured in 60 mm culture dishes, and experiments were carried out in cells from passages 2 to 12.
as §1
Reactions were terminated by the addition of cold 10% trichloroacetic acid (TCA), the supernatants subjected to ether extraction, and the aqueous phase titrated to neutral pH using 0.1 M Tris base. […] To ensure the reliability of the separation technique, the same methods for extraction and separation were applied to known amounts of [^3 H]-IP1, [^3 H]IP2, and [^3 H]-IP3 standards (New England Nuclear) mixed in a ratio of 3:2:1, respectively, and subjected to separation by HPLC.

renal arterioles = settings: rat, in vivo; cited from earlier work
HL-60 myeloid cells = settings: DMSO-differentiated HL-60 cells; cited from earlier work
[7] = biological target: T1, mesangial cell LTD4 receptor; settings: even at a 1000-fold excess concentration
Experimental: Mesangial Cell Culture: Rat mesangial cells were isolated and cultured as described previously (Harris, R. C., et al., J. Clin. Invest. 82:1028-1039(1988). Briefly, kidneys were exicesed from two young Sprague-Dawly rats under sterile conditions, and the cortices removed, minced, and washed several times in Hank's Balanced Salt Solution, containing 10 mM HEPES pH 7.4, amphotericin (0.25 μg/ml), and gentamicin (50 μg/ml). The tissue was then passed through consecutive sterilized stainless mesh filters with pore sizes of 212 μm, 150 μm, and then onto the final mesh of 75 μm. The isolated glomeruli were harvested from the surface of the 75 μm. The isolated glomeruli were harvested from the surface of the 75 μm filter and washed twisce with the Hank's Media. The glomeruli were suspended in RPMI 1640 Medium with 15% Fetal Bovine Serum (Givco), penicillin (100 μ/ml) and streptomycin (100 μg/ml) (Gibco), plated into 100 mm cell culture petri dishes, and incubated at 37° C. in a humidified atmosphere of 95% air and 5% air and 5% CO2. Mesangial cell colonies were subcultured in 60 mm culture dishes, and experiments were carried out in cells from passages 2 to 12. […] Cells were routinely grown in RPMI-1640, supplemented with 20% fetal calf serum, penicillin 100 μ/ml, and streptomycin 100 μg/ml.
Binding studies were routinely performed at 4° C. […] The cells were then dissolved with 1.0 ml of 1.0 N NaOH, neutralized with HCl, dissolved in 10 ml of Aquasol (New England Nuclear, Boston, MA), and the bound radioactivity was determined using a scintillation counter (Beckman Instruments). […] Cell density was determined by counting cells from replicate wells, using a Coulter Counter ZBi (Coulter Electronics, Inc., Hialeah, Fla.).

[8] = 100-fold concentrations of SKF 104353
[9] = Group I, period 2, A: LTD4 0.5 μg/kg/min, n=4
[10] = Group I, period 2, B: LTD4 7 μg/kg/min, n=3
[11] = Group I, period 2, C: LTD4 14 μg/kg/min, n=3
[12] = Group I, period 2, D: LTD4 20 μg/kg/min, n=4
[13] = LTD4 7.0 μg/kg/min, p<0.05 vs baseline
[14] = LTD4 14.0 μg/kg/min, p<0.05 vs baseline
[15] = LTD4 20.0 μg/kg/min, p<0.05 vs baseline

Question: Which “Inhibition of IP3 formation in response to LTD4 (FIG. 2)” value (LTD4 receptor [1]; [8]) does the source give for `O=C(O)CCS[C@H](c1ccccc1CCCCCCCCc1ccccc1)[C@@H](O)C(=O)O` [SKF 104353] here?
Answer: complete abolition

Question: What about the “Inhibition of LTD4-induced stimulation of [3H]-IP3 formation” value (LTD4 receptor [1]; 100-fold excess over ligand, LTD4 10 and 50 nM (n=3 each)) of the same molecule?
Answer: total abrogation

Question: What about the “Inhibition of [3H]-LTD4 binding to its mesangial cell binding site” value [2] of the same molecule?
Answer: inhibit [^3 H]-LTD4 binding

Question: And the “Inhibition of IP3 formation in response to LXA4 (FIG. 2)” value (LTD4 receptor [3]; [8])?
Answer: complete abolition

Question: What about the “Inhibition of LXA4-induced IP3 formation” value (LTD4 receptor [3]; SKF 104353 100 nM (n=3)) of the same molecule?
Answer: abrogated; also recorded: total abrogation

Question: What about the Agonist activity (LTD4/ LTE4 receptors) of the same molecule?
Answer: devoid of agonist activity

Question: For `CCCc1c(OCC(O)COc2ccc3c(=O)cc(C(=O)O)oc3c2CCC)ccc(C(C)=O)c1O` (stereo not drawn) [FPL-55712], which Duration of action (LTD4 receptor [4]) is on record?
Answer: short-acting

Question: For `CCCCC/C=C\C\C=C/C=C/C=C/[C@@H](SC[C@H](N)C(=O)NCC(=O)O)[C@@H](O)CCCC(=O)O` [LTD4, reference compound], which Systemic hemodynamic alterations [5] is on record?
Answer: elevation in systemic arterial pressure and a progressive loss of plasma volume

Question: What about the “Contraction of mesangial cells in culture” value (mesangial cells) of the same molecule?
Answer: contracts mesangial cells in culture

Question: What about the “GFR and RPF change (in words)” value ([6]; Group I, LTD4 0.5-20.0 μg/kg/min) of the same molecule?
Answer: dose-dependent reductions

Question: What about the AP [6, 9] of the same molecule?
Answer: 127 ± 9 mmHg

Question: And the GFR [6, 9]?
Answer: 0.81 ± 0.11 mL/min

Question: And the Hct [6, 9]?
Answer: 48.3 ± 1.2 Vol./dl

Question: And the RPF [6, 9]?
Answer: 3.41 ± 0.50 mL/min

Question: And the AP [6, 10]?
Answer: 124 ± 6 mmHg

Question: What about the GFR [6, 10] of the same molecule?
Answer: 0.84 ± 0.15 mL/min

Question: What about the Hct [6, 10] of the same molecule?
Answer: 53.0 ± 1.5 Vol./dl

Question: And the RPF [6, 10]?
Answer: 2.76 ± 0.59 mL/min

Question: And the AP [6, 11]?
Answer: 148 ± 5 mmHg

Question: What about the GFR [6, 11] of the same molecule?
Answer: 0.32 ± 0.10 mL/min

Question: And the Hct [6, 11]?
Answer: 59.2 ± 2.2 Vol./dl

Question: What about the RPF [6, 11] of the same molecule?
Answer: 1.51 ± 0.44 mL/min

Question: What about the AP [6, 12] of the same molecule?
Answer: 128 ± 4 mmHg

Question: What about the GFR [6, 12] of the same molecule?
Answer: 0.34 ± 0.80 mL/min

Question: And the Hct [6, 12]?
Answer: 55.0 ± 1.8 Vol./dl

Question: What about the RPF [6, 12] of the same molecule?
Answer: 1.20 ± 0.15 mL/min

Question: What about the “Mean percent fall in RPF” value ([6]; LTD4 0.5 μg/kg/min) of the same molecule?
Answer: 24%

Question: What about the “Mean percent fall in GFR” value ([6]; LTD4 0.5 μg/kg/min, p<0.05 vs baseline) of the same molecule?
Answer: 27%

Question: What about the “Mean percent fall in GFR” value [6, 13] of the same molecule?
Answer: 25%

Question: And the “Mean percent fall in RPF” value [6, 13]?
Answer: 40%

Question: And the “Mean percent fall in GFR” value [6, 14]?
Answer: 70%

Question: What about the “Mean percent fall in RPF” value [6, 14] of the same molecule?
Answer: 65%

Question: And the “Mean percent fall in GFR” value [6, 15]?
Answer: 73%

Question: What about the “Mean percent fall in RPF” value [6, 15] of the same molecule?
Answer: 70%

Question: And the activation at 0.01 µM (rat mesangial cells)?
Answer: 146 ± 20%

Question: What about the activation at 0.05 µM (rat mesangial cells) of the same molecule?
Answer: 106 ± 13%

Question: And the “Kf and GFR in vivo” value (renal arterioles)?
Answer: markedly reduces

Question: And the “Intracellular Ca2+ concentrations” value (HL-60 myeloid cells)?
Answer: increase intracellular Ca^2+ concentrations

Question: Which “Competition for [3H]-LTD4 at excess concentration” value [7] does the source give for `CCCCC[C@H](O)/C=C/C=C\C=C\C=C\[C@H](O)[C@@H](O)CCCC(=O)O` [6S-LXA4, 5S,6S,15S,trihydroxy-7,9,13-trans-11-cis-eicosatetraenoic acid, reference compound] here?
Answer: filed to compete for [^3 H]-LTD4
